Data as given in US20140121182A1, “PROTEASOME INHIBITORS AND PROCESSES FOR THEIR PREPARATION, PURIFICATION AND USE” (Cephalon, Inc., priority 2011, published 2014).
Each block holds one compound with its values, some of them ahead of it.

Experiments:
[1] = Comparative bioavailability: pharmacokinetic parameters for Compound 1 in rat plasma and blood after single iv and oral doses of its esters; format: in vivo, male Sprague Dawley rats; conditions: for AUC0-t / AUC0-∞ / CL / Vd / t½ / Cmax / Oral Bioavailability / Tmax: mean ± SEM
Experimental: Three adult male Sprague Dawley rats are used in each treatment group. The rats are fasted overnight prior to oral dose administration. Intravenous (IV) administration is via the lateral tail vein and oral doses are administered by gavage. The compound is administered iv or orally in a vehicle of phosphate buffered saline.
For blood collection, each rat (unanesthetized) is placed in a clear Plexiglas® restraining tube, and blood samples (approximately 0.25 mL) are drawn from a lateral tail vein into heparinized collection tubes at predetermined sampling times (0.083, 0.25, 0.5, 1, 2, 4, and 6 hours post dose). No pre-dose samples are obtained. The exception to this procedure is the last sampling time in which the animals are sacrificed by decapitation and trunk blood is obtained rather than blood via a tail vein. The blood samples are placed on wet ice until centrifuged to separate plasma. The whole blood and the plasma fraction are transferred into clean dry tubes, frozen on dry ice and stored at approximately −20° C. pending analysis.
Blood or plasma is prepared for high performance liquid chromatography (HPLC)/mass spectrometric analysis according to standard protocol following protein precipitation with acetonitrile containing an internal standard. The blood or plasma samples are then analyzed for Compound 1 and alprenolol (internal standard) via HPLC coupled with tandem mass spectrometry.
The blood and plasma concentration data for all rats are entered into Excel spreadsheets in preparation for pharmacokinetic analysis. Pharmacokinetic parameters for Compound 1 are estimated for each rat by non-compartmental analysis (Gibaldi M, Perrier D. Pharmacokinetics, 2nd edition, Marcel Dekker, New York, Chapter 11, 1982) of the blood or plasma concentration versus time data using WinNonlin software (Professional Version 4.1a, Pharsight Corporation, Palo Alto, Calif., 2003).
The maximum blood or plasma concentration (Cmax) is the highest observed concentration after an oral dose; tmax is the corresponding time when Cmax is observed. The terminal rate constant for elimination from blood or plasma (β) is estimated by linear regression of the terminal portion of the semi-logarithmic plasma concentration versus time curve. The apparent terminal half-life (t1/2) is calculated as 0.693 divided by β. The area under the blood or plasma concentration versus time curve from time zero to the time of the last measurable concentration (AUC0-t) after a single dose is determined by the linear trapezoidal rule. The area from zero to infinity (AUC0-∞) is calculated as the sum of AUC0-t and the area extrapolated from the last measurable concentration to infinity (Clast/β). Concentrations pre dose are all assumed to be zero for the purpose of calculation of the AUC. Oral bioavailability is determined by dividing the dose normalized oral AUC0-∞ by the […] from iv dosing and multiplying by 100 to express the ratio as a percent.
The mean±SEM. pharmacokinetic parameters for Compound 1 in male Sprague Dawley rats administered as single iv and oral doses of the citric acid ester of Compound 1 (“Form 1” or “Form 2”) or the diethanolamine ester of Compound 1 (“DEA Adduct”; i.e., boronic ester of Formula X) are shown in Tables 5-10 and corresponding FIGS. 5-10.

[2] = Storage for approximately one year at ambient indoor temperature and humidity, HPLC purity; format: physicochemical; conditions: in a vial at the rear of a fume hood
Experimental: A 100 mL three neck round bottom flask equipped with a stir bar, thermocouple and nitrogen inlet is charged with 6.0 g (16.6 mmol) of Compound 1 (98.5A % purity) and 60 mL of ethyl acetate then stirred for five minutes at room temperature to dissolve the solids. Diethanol amine (1.68 g, 16.0 mmol) is charged and solids begin to form when addition is only ⅔ complete. The white slurry is stirred at room temperature for two hours and then the solids are collected by vacuum filtration, washed with 50 mL of ethyl acetate and dried overnight in a vacuum oven at 40° C. A quantitative yield of the desired product is obtained as a crystalline solid with an HPLC purity of 99.7A %. After storing for approximately one (1) year at ambient indoor temperature and humidity (in a vial at the rear of a fume hood), the HPLC purity was 99.9A %. ^1H NMR (d6-DMSO, 400 MHz) δ 8.8 (t, 1H, J=5.88 Hz), 7.55 (s, 2H), 7.52 (s, 1H), 6.99 (d, 1H, J=8.36 Hz), 6.57 (s, b, 1H), 3.85 (dq, 1H, J=16.1, 5.92 Hz), 3.69 (m, 2H), 3.57 (m, 1H), 3.14 (m, 1H), 2.99 (m, 2H), 2.75 (m, 1H), 2.69 (m, 1H), 1.59 (m, 1H), 1.31 (m, 1H), 1.22 (m, 1H), 0.824 (d, 3H, J=6.64 Hz), 0.797 (D, 3 h, J=6.48 Hz)
A 15 mL one neck round bottom flask equipped with a stir bar and nitrogen inlet is charged with 0.5 g (1.39 mmol) of Compound 1 (98.5A % purity) and 5 mL of ethyl acetate then stirred for five minutes at room temperature to dissolve the solids. Diisopropanolamine (185 mg, 1.39 mmol) is charged and stirred at room temperature. The white precipitate is collected by vacuum filtration, washed with 5 mL of ethyl acetate and dried overnight under nitrogen on the filter to give 410 mg (0.895 mmol, 64%) of the desired product with an HPLC purity of 99.4A %. […]

[3] = Storage stability in freezer / under ambient conditions; format: physicochemical
From the text: Compound 1 is obtained as a non-crystalline solid using the process set forth in US 2009/0325903. Compound 1 is obtained as a mixture of monomer and the trimer anhydride N,N′,N″-boroxin-2,4,6-triyltris {{(1R)-3-methylbutane-1,1-diyl]imino(2-oxoethane-2,1-diyl)]}tris(2,5-dichlorobenzamide) (H NMR analysis).
The citric acid ester of Compound 1 (4-(R,S)-(carboxymethyl)-2-((R)-1-(2-(2,5-dichlorobenzamido)acetamido)-3-methylbutyl)-6-oxo-1,3,2-dioxaborinane-4-carboxylic acid) is obtained as a crystalline solid (Form 1 or Form 2) using the process set forth in US 2009/0325903. The citric acid ester of Compound 1 is stable when stored in the freezer.

[4] = Compound 1 in blood, 0.3 mg/kg IV
[5] = Compound 1 in blood, 1 mg/kg IV
[6] = Compound 1 in blood, 1 mg/kg PO
[7] = Compound 1 in blood, 3 mg/kg PO
[8] = Compound 1 in plasma, 0.3 mg/kg IV
[9] = Compound 1 in plasma, 1 mg/kg IV
[10] = Compound 1 in plasma, 1 mg/kg PO
[11] = Compound 1 in plasma, 3 mg/kg PO

AUC0-t [1, 4]: 168 ± 46 ng·h/mL
AUC0-∞ [1, 4]: 190 ± 45 ng·h/mL
CL [1, 4]: 30 ± 6 mL/min/kg
Vd [1, 4]: 5.8 ± 1.9 L/kg
t½ [1, 4]: 2.2 ± 0.4 h
AUC0-t [1, 5]: 509 ± 89 ng·h/mL
AUC0-∞ [1, 5]: 535 ± 100 ng·h/mL
CL [1, 5]: 33 ± 6 mL/min/kg
Vd [1, 5]: 3.9 ± 0.7 L/kg
t½ [1, 5]: 1.4 ± 0.2 h
AUC0-t [1, 6]: 166 ± 16 ng·h/mL
AUC0-∞ [1, 6]: 200 ± 17 ng·h/mL
Cmax [1, 6]: 92 ± 39 ng/mL
Oral Bioavailability [1, 6]: 32 ± 1%
Tmax [1, 6]: 0.3 ± 0.1 h
t½ [1, 6]: 2.8 h
AUC0-t [1, 7]: 336 ± 69 ng·h/mL
AUC0-∞ [1, 7]: 381 ± 78 ng·h/mL
Cmax [1, 7]: 205 ± 84 ng/mL
Oral Bioavailability [1, 7]: 23 ± 4%
Tmax [1, 7]: 0.8 ± 0.6 h
t½ [1, 7]: 1.7 ± 0.2 h
AUC0-t [1, 8]: 449 ± 256 ng·h/mL
AUC0-∞ [1, 8]: 457 ± 254 ng·h/mL
CL [1, 8]: 20 ± 9 mL/min/kg
Vd [1, 8]: 0.9 ± 0.3 L/kg
t½ [1, 8]: 0.6 ± 0.1 h
AUC0-t [1, 9]: 1225 ± 42 ng·h/mL
AUC0-∞ [1, 9]: 1240 ± 47 ng·h/mL
CL [1, 9]: 13 ± 1 mL/min/kg
Vd [1, 9]: 1.2 ± 0.1 L/kg
t½ [1, 9]: 1.1 ± 0.1 h
AUC0-t [1, 10]: 170 ± 16 ng·h/mL
AUC0-∞ [1, 10]: 182 ± 17 ng·h/mL
Cmax [1, 10]: 179 ± 39 ng/mL
Oral Bioavailability [1, 10]: 12 ± 1%
Tmax [1, 10]: 0.3 ± 0.1 h
AUC0-t [1, 11]: 990 ± 310 ng·h/mL
AUC0-∞ [1, 11]: 1029 ± 299 ng·h/mL
Cmax [1, 11]: 567 ± 185 ng/mL
Oral Bioavailability [1, 11]: 27 ± 8%
Tmax [1, 11]: 0.5 ± 0.0 h
t½ [1, 11]: 1.1 ± 0.1 h
oral bioavailability (conclusion in words) ([1]; conclusion from Tables 5-10): orally bioavailable
HPLC purity after storing for approximately one (1) year [2]: 99.9 A %
Compound: 2,5-Dichloro-N—[(R)-1-[1,3,6,2]dioxazaborocan-2-yl-3-methyl-butylcarbamoyl)methyl]-benzamide [boronic ester of Formula X]

storage stability ([3]; stored in the freezer): stable
Compound: CC(C)C[C@H](NC(=O)CNC(=O)c1cc(Cl)ccc1Cl)B1OC(=O)CC(CC(=O)O)(C(=O)O)O1 (mixture of isomers) [citric acid ester of Compound 1, 4-(R,S)-(carboxymethyl)-2-((R)-1-(2-(2,5-dichlorobenzamido)acetamido)-3-methylbutyl)-6-oxo-1,3,2-dioxaborinane-4-carboxylic acid, reference compound]

HPLC purity after storing for approximately one (1) year [2]: 84.4 A %
Compound: CC(C)C[C@H](NC(=O)CNC(=O)c1cc(Cl)ccc1Cl)B1OC(=O)CN(C)CC(=O)O1 [2,5-Dichloro-N—{[(R)-3-methyl-1-(6-methyl-4,8-dioxo-[1,3,6,2]dioxazaborocan-2-yl)-butylcarbamoyl]-methyl}benzamide]

storage stability ([3]; ambient conditions): not storage stable
storage stability ([3]; stored in the freezer): stable
Compound: CC(C)C[C@H](NC(=O)CNC(=O)c1cc(Cl)ccc1Cl)B(O)O [Compound 1, [(1R)-1-({[(2,5-dichlorobenzoyl)amino]acetyl}amino)-3-methylbutyl]boronic acid]

HPLC purity after storing for approximately one (1) year [2]: 99.8 A %
Compound: CC(C)C[C@H](NC(=O)CNC(=O)c1cc(Cl)ccc1Cl)B1OC(C)CNCC(C)O1 (stereo partly drawn) [boronic ester of Formula IX, 2,5-Dichloro-N-{[(R)-1-(4,8-dimethyl-[1,3,6,2]dioxazaborocan-2-yl)-3-methyl-butylcarbamoyl]-methyl}benzamide]
